From US9018388B2, “Pesticidal compositions and processes related thereto” (Dow AgroSciences LLC, priority 2012, dated 2015) come the findings set out here.

What all share (type): in vivo
Assay [1] deals with Beet Armyworm (BAW) (Spodoptera exigua). In words: Bioassay on beet armyworm (BAW), 128-well diet tray assay. The note with it: Spodoptera exigua; Beet armyworm, 50 μg/cm^2; read-out: % Mortality BAW 50 μg/cm^2. The method in brief:
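Second-instar Spodoptera exigua larvae, one to five per well, on artificial diet treated with 50 μg/cm^2 compound in 90:10 acetone-water and dried, eight wells per compound. Held at 25 °C, 14:10 light-dark for five to seven days; percent mortality averaged over wells.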

Assay [2] has as its system Corn Earworm (CEW) (Helicoverpa zea). In words: Bioassay on corn earworm (CEW), 128-well diet tray assay. The settings on record: Helicoverpa zea; Corn earworm, 50 μg/cm^2; read-out: % Mortality CEW 50 μg/cm^2. The procedure, abridged: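 Second-instar Helicoverpa zea larvae (one to five per well) placed on artificial diet treated with 50 μg/cm^2 compound in 90:10 acetone-water, dried, eight wells per compound. Held at 25 °C, 14:10 light-dark, five to seven days; percent mortality averaged over wells.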

Assay [3] relates to Green Peach Aphid (GPA) (Myzus persicae). In words: Bioassay on green peach aphid (GPA), foliar spray on cabbage seedlings. The settings on record: 72 h, read-out: % Mortality GPA 200 ppm. The method, then: Bioassays on Green Peach Aphid (“GPA”) (Myzus persicae)
Certain molecules disclosed in this document were tested against GPA using procedures described in the following example. In the reporting of the results, the “GPA Rating Table” was used (See Table Section).
Cabbage seedlings grown in 3-inch pots, with 2-3 small (3-5 cm) true leaves, were used as test substrate. The seedlings were infested with 20-50 GPA (wingless adult and nymph stages) one day prior to chemical application. Four pots with individual seedlings were used for each treatment. Test compounds (2 mg) were dissolved in 2 mL of acetone/methanol (1:1) solvent, forming stock solutions of 1000 ppm test compound. The stock solutions were diluted 5× with 0.025% Tween 20 in H2O to obtain the solution at 200 ppm test compound. A hand-held aspirator-type sprayer was used for spraying a solution to both sides of […] leaves until runoff. Reference plants (solvent check) were sprayed with the diluent only containing 20% by volume of acetone/methanol (1:1) solvent. Treated plants were held in a holding room for three days at approximately 25° C. and ambient relative humidity (RH) prior to grading. Evaluation was conducted by counting the number of live aphids per plant under a microscope. Percent Control was measured by using Abbott's correction formula (W. S. Abbott, “A Method of Computing the Effectiveness of an Insecticide” J. Econ. Entomol. 18 (1925), pp. 265-267) as follows. Corrected%Control=100*(X−Y)/X • where • X=No. of live aphids on solvent check plants and • Y=No. of live aphids on treated plants
The results are indicated in the table entitled “Table 5: Biological Results” (See Table Section).

In the case of `Cc1cccc(C)c1-n1c(-c2ccc(C(F)(F)F)cc2)cs/c1=N\N=C\c1ccc(-c2ncn(-c3ccc(OC(F)(F)F)cc3)n2)cc1` [Compound 79C], the pest or weed control at 50 µg/cm2, 50 µg/cm2 in assay [1] and in assay [2] was 50 to 100% each time. Moreover, the pest or weed control at 200 ppm in assay [3] is 0 to 80%.

Take `CC1S/C(=N\N=C\c2ccc(-c3ncn(-c4ccc(OC(F)(F)F)cc4)n3)cc2)N(c2ccccc2C(C)C)C1=O` (stereo not drawn) [Compound 88C]: the pest or weed control at 50 µg/cm2, 50 µg/cm2 in assay [1] and in assay [2] was 50 to 100% each time. Also, the pest or weed control at 200 ppm in assay [3] lay within 0 to 80%.

As to `COc1ccccc1N1C(=O)CS/C1=N\N=C\c1ccc(-c2ncn(-c3ccc(OC(F)(F)F)cc3)n2)cc1` [Compound 92C], the pest or weed control at 50 µg/cm2, 50 µg/cm2 in assay [1] and in assay [2] was 50 to 100% in each case. For the same molecule, the pest or weed control at 200 ppm in assay [3] fell in the range of 0 to 80%.

Regarding `O=C1CS/C(=N\N=C\c2ccc(-c3ncn(-c4ccc(OC(F)(F)F)cc4)n3)cc2)N1c1c(F)cccc1Cl` [Compound 95C], the pest or weed control at 50 µg/cm2, 50 µg/cm2 in assay [1] and in assay [2] was 50 to 100% in each case. For the same molecule, the pest or weed control at 200 ppm in assay [3] lay within 0 to 80%.

With `O=C1CS/C(=N\N=C\c2ccc(-c3ncn(-c4ccc(OC(F)(F)F)cc4)n3)cc2)N1c1ccccc1-c1ccccc1` [Compound 96C], the pest or weed control at 50 µg/cm2, 50 µg/cm2 in assay [1] and in assay [2] was 50 to 100% throughout. For the same molecule, the pest or weed control at 200 ppm in assay [3] fell in the range of 0 to 80%.

As to `CCc1cccc(C)c1N1C(=O)CS/C1=N\N=C\c1ccc(-c2ncn(-c3ccc(OC(F)(F)F)cc3)n2)cc1` [Compound 111C], the pest or weed control at 50 µg/cm2, 50 µg/cm2 in assay [1] and in assay [2] was 50 to 100% each time. Further, in assay [3], the pest or weed control at 200 ppm is 0 to 80%.

For the molecule `O=C1CS/C(=N\N=C\c2ccc(-c3ncn(-c4ccc(OC(F)(F)F)cc4)n3)cc2)N1c1ccccc1C1CC1` [Compound 112C], the pest or weed control at 50 µg/cm2, 50 µg/cm2 in assay [1] and in assay [2] was 50 to 100% each time. Besides, the pest or weed control at 200 ppm in assay [3] was in the range of 0 to 80%.

For `CC(C)=Cc1ccccc1N1C(=O)CS/C1=N\N=C\c1ccc(-c2ncn(-c3ccc(OC(F)(F)F)cc3)n2)cc1` [Compound 121C], the pest or weed control at 50 µg/cm2, 50 µg/cm2 in assay [1] and in assay [2] was 50 to 100% in each case. In addition, in assay [3], the pest or weed control at 200 ppm fell in the range of 0 to 80%.

For `CC(C)c1ccccc1N1CCS/C1=N\N=C\c1ccc(-c2ncn(-c3ccc(OC(F)(F)F)cc3)n2)cc1` [Compound 132C], the pest or weed control at 50 µg/cm2, 50 µg/cm2 in assay [1] and in assay [2] was 50 to 100% each time. Further, the pest or weed control at 200 ppm in assay [3] lay within 0 to 80%.

For `CCc1ccccc1N1CCS/C1=N\N=C\c1ccc(-c2ncn(-c3ccc(OC(F)(F)F)cc3)n2)cc1` [Compound 133C], the pest or weed control at 50 µg/cm2, 50 µg/cm2 in assay [1] and in assay [2] was 50 to 100% throughout. Also, the pest or weed control at 200 ppm in assay [3] was 0 to 80%.

For the molecule `COc1cc(C)c(N2CCS/C2=N\N=C\c2ccc(-c3ncn(-c4ccc(OC(F)(F)F)cc4)n3)cc2)c(C)c1` [Compound 138C], the pest or weed control at 50 µg/cm2, 50 µg/cm2 in assay [1] and in assay [2] was 50 to 100% each time. The pest or weed control at 200 ppm in assay [3] was in the range of 0 to 80%.

As for `Cc1cc(C)c(N2CCS/C2=N\N=C\c2ccc(-c3ncn(-c4ccc(OC(F)(F)F)cc4)n3)cc2)c(C)c1` [Compound 139C], the pest or weed control at 50 µg/cm2, 50 µg/cm2 in assay [1] and in assay [2] was 50 to 100% each time. Further, in assay [3], the pest or weed control at 200 ppm lay within 0 to 80%.

Regarding `COc1ccccc1N1CCS/C1=N\N=C\c1ccc(-c2ncn(-c3ccc(OC(F)(F)F)cc3)n2)cc1` [Compound 140C], the pest or weed control at 50 µg/cm2, 50 µg/cm2 in assay [1] and in assay [2] was 50 to 100% each time. Also, the pest or weed control at 200 ppm in assay [3] fell in the range of 0 to 80%.

`FC(F)(F)Oc1ccc(-n2cnc(-c3ccc(/C=N/N=C4\SCCN4c4ccccc4C4CC4)cc3)n2)cc1` [Compound 145C]: the pest or weed control at 50 µg/cm2, 50 µg/cm2 in assay [1] and in assay [2] was 50 to 100% each time. Also, in assay [3], the pest or weed control at 200 ppm was in the range of 0 to 80%.

Take `CCOc1ccccc1N1CCS/C1=N\N=C\c1ccc(-c2ncn(-c3ccc(OC(F)(F)F)cc3)n2)cc1` [Compound 146C]: the pest or weed control at 50 µg/cm2, 50 µg/cm2 in assay [1] and in assay [2] was 50 to 100% throughout. Besides, the pest or weed control at 200 ppm in assay [3] is 0 to 80%.

For `COc1cccc(N2CCS/C2=N\N=C\c2ccc(-c3ncn(-c4ccc(OC(F)(F)F)cc4)n3)cc2)c1` [Compound 147C], the pest or weed control at 50 µg/cm2, 50 µg/cm2 in assay [1] and in assay [2] was 50 to 100% in each case. Moreover, in assay [3], the pest or weed control at 200 ppm lay in the range of 0 to 80%.

`CC(C)=Cc1ccccc1N1CCS/C1=N\N=C\c1ccc(-c2ncn(-c3ccc(OC(F)(F)F)cc3)n2)cc1` [Compound 151C]: the pest or weed control at 50 µg/cm2, 50 µg/cm2 in assay [1] and in assay [2] was 50 to 100% each time. The pest or weed control at 200 ppm in assay [3] is 0 to 80%.

Regarding `Cc1ccccc1N1/C(=N/N=C/c2ccc(-c3ncn(-c4ccc(OC(F)(F)F)cc4)n3)cc2)SCC1C` (stereo not drawn) [Compound 154C], the pest or weed control at 50 µg/cm2, 50 µg/cm2 in assay [1] and in assay [2] was 50 to 100% in each case. The pest or weed control at 200 ppm in assay [3] lay within 0 to 80%.

On to `CCc1cccc(C)c1N1/C(=N/N=C/c2ccc(-c3ncn(-c4ccc(OC(F)(F)F)cc4)n3)cc2)SCC1C` (stereo not drawn) [Compound 156C], for which the pest or weed control at 50 µg/cm2, 50 µg/cm2 in assay [1] and in assay [2] was 50 to 100% in each case. In addition, the pest or weed control at 200 ppm in assay [3] was 0 to 80%.

As to `CC1CS/C(=N\N=C\c2ccc(-c3ncn(-c4ccc(OC(F)(F)F)cc4)n3)cc2)N1c1c(Cl)cccc1Cl` (stereo not drawn) [Compound 157C], the pest or weed control at 50 µg/cm2, 50 µg/cm2 in assay [1] and in assay [2] was 50 to 100% each time. In assay [3], the pest or weed control at 200 ppm lay within 0 to 80%.

Consider `Cc1cccc(Cl)c1N1/C(=N/N=C/c2ccc(-c3ncn(-c4ccc(OC(F)(F)F)cc4)n3)cc2)SCC1C` (stereo not drawn) [Compound 158C], for which the pest or weed control at 50 µg/cm2, 50 µg/cm2 in assay [1] and in assay [2] was 50 to 100% in each case. The pest or weed control at 200 ppm in assay [3] was in the range of 0 to 80%.

On to `Cc1cccc(Cl)c1-n1c(C)cs/c1=N\N=C\c1ccc(-c2ncn(-c3ccc(OC(F)(F)F)cc3)n2)cc1` [Compound 174C], for which the pest or weed control at 50 µg/cm2, 50 µg/cm2 in assay [1] and in assay [2] was 50 to 100% in each case. Further, the pest or weed control at 200 ppm in assay [3] lay in the range of 0 to 80%.

As for `COc1cc(C)c(N2CCCS/C2=N\N=C\c2ccc(-c3ncn(-c4ccc(OC(F)(F)F)cc4)n3)cc2)c(C)c1` [Compound 181C], the pest or weed control at 50 µg/cm2, 50 µg/cm2 in assay [1] and in assay [2] was 50 to 100% throughout. For the same molecule, the pest or weed control at 200 ppm in assay [3] is 0 to 80%.

Take `Cc1cccc(C)c1N1CCCS/C1=N\N=C\c1ccc(-c2ncn(-c3ccc(OC(F)(F)F)cc3)n2)cc1` [Compound 182C]: the pest or weed control at 50 µg/cm2, 50 µg/cm2 in assay [1] and in assay [2] was 50 to 100% throughout. Also, the pest or weed control at 200 ppm in assay [3] was in the range of 0 to 80%.

As to `FC(F)(F)Oc1ccc(-n2cnc(-c3ccc(/C=N/N=C4\SCCCN4c4ccccc4C4CC4)cc3)n2)cc1` [Compound 186C], the pest or weed control at 50 µg/cm2, 50 µg/cm2 in assay [1] and in assay [2] was 50 to 100% throughout. In addition, the pest or weed control at 200 ppm in assay [3] lay in the range of 0 to 80%.

For `Fc1cccc(Cl)c1N1CCCS/C1=N\N=C\c1ccc(-c2ncn(-c3ccc(OC(F)(F)F)cc3)n2)cc1` [Compound 188C], the pest or weed control at 50 µg/cm2, 50 µg/cm2 in assay [1] and in assay [2] was 50 to 100% in each case. For the same molecule, the pest or weed control at 200 ppm in assay [3] is 0 to 80%.

On to `Fc1cccc(F)c1N1CCCS/C1=N\N=C\c1ccc(-c2ncn(-c3ccc(OC(F)(F)F)cc3)n2)cc1` [Compound 189C], for which the pest or weed control at 50 µg/cm2, 50 µg/cm2 in assay [1] and in assay [2] was 50 to 100% each time. Moreover, the pest or weed control at 200 ppm in assay [3] lay in the range of 0 to 80%.

In the case of `FC(F)(F)Oc1ccc(-n2cnc(-c3ccc(/C=N/N=C4\SCCCN4c4c(Cl)cccc4C(F)(F)F)cc3)n2)cc1` [Compound 190C], the pest or weed control at 50 µg/cm2, 50 µg/cm2 in assay [1] and in assay [2] was 50 to 100% in each case. In assay [3], the pest or weed control at 200 ppm is 0 to 80%.

As for `COc1ccc(N2CCCS/C2=N\N=C\c2ccc(-c3ncn(-c4ccc(OC(F)(F)F)cc4)n3)cc2)c(C)c1` [Compound 192C], the pest or weed control at 50 µg/cm2, 50 µg/cm2 in assay [1] and in assay [2] was 50 to 100% in each case. Besides, the pest or weed control at 200 ppm in assay [3] lay within 0 to 80%.
